How the values were obtained:
Format in all cases: cell-based
[1] = system: human cyclin D1 IRES; assay: Dicistronic IRES mRNA reporter assay (firefly luciferase), cyclin D1 IRES; settings: for Cyclin D1 (decrease): fold decrease in PP242-induced cyclin D1 IRES activity: LN229, relative to values obtained with parent compound C11
Experimental: (§1) Western blot and quantitative RT-PCR analyses were performed as previously described (19). For Western blotting, cells or tissues were lysed in RIPA (lysis) buffer containing protease inhibitor cocktail and phosSTOP phosphatase inhibitor cocktail (Roche) and extracts resolved by SDSPAGE. Proteins were transferred to PVDF membranes and incubated with the indicated antibodies. For IRES reporter assays, the indicated mRNA reporters were cotransfected into cells with pSVβ-galactosidase to normalize for transfection efficiency as described previously (16). Cells were harvested 18 h following transfection and Renilla, firefly and β-galactosidase activities determined using the Dual-Glo Luciferase and β-galactosidase assay systems (Promega).
(B) Schematic diagrams of the dicistronic constructs used in this study. Constructs used are pRF, pRCD1F, which contains the human cyclin D1 IRES, pRmycF, containing the human c-myc IRES, pRp27F, containing the human p27Kip1 IRES and pRECMVF, containing the IRES from encephalomyocarditis virus. (C) Relative Renilla and firefly luciferase activities obtained from LN229 GBM cells transfected with the indicated constructs in the absence or presence of the inhibitor C11. The mean and +SD are shown for three independent experiments. […] (D) RNA-pull down assays utilizing biotinylated cyclin D1 or c-MYC IRES RNAs. Cytoplasmic extracts of LN229 cells treated with C11 (50 nM) as indicated were incubated with biotinylated cyclin D1 or c-MYC IRES RNAs and precipitated with streptavidin-Sepharose beads. Input and bound fractions were analyzed by immunoblotting using hnRNP A1 antibodies. […] RT-PCR measurements were performed in quadruplicate and the mean and +S.D. are shown. […] (F) Top panel, LN229 cells were treated with C11 as indicated and RT-PCR splicing analysis for Max exon 5 performed as described in the Experimental Methods section. Middle panel, LN229 cells treated with C11 (50 nM) as indicated, were lysed and immunoprecipitated using either eIF-4E or control IgG antibodies. Bound CCND1 or c-MYC RNAs were detected via RT-PCR. The mean and +S.D. are shown for three independent experiments. Bottom panel, cyclin D1 and c-MYC protein levels from the indicated GBM cell lines in the absence or presence of C11 at 24 h following treatment. C11 specifically blocks c-Myc IRES-mediated translation initiation by disrupting the ITAF hnRNP A1-IRES interaction.
Several dicistronic IRES mRNA reporter constructs were utilized, shown in FIG. 1B, in which the indicated IRES sequences were inserted within the intercistronic region. LN229 cells transiently transfected with these constructs were assayed for Renilla and firefly luciferase activities, which are readouts of cap-dependent and IRES-mediated translation initiation, respectively (16). […]

[2] = system: cyclin D1 and c-MYC protein; assay: Western blot of cyclin D1 and c-MYC protein levels in GBM cell lines; settings: LN229 and SF763 cells, 24 h
Experimental: as §1
(B) Schematic diagrams of the dicistronic constructs used in this study. Constructs used are pRF, pRCD1F, which contains the human cyclin D1 IRES, pRmycF, containing the human c-myc IRES, pRp27F, containing the human p27Kip1 IRES and pRECMVF, containing the IRES from encephalomyocarditis virus. (C) Relative Renilla and firefly luciferase activities obtained from LN229 GBM cells transfected with the indicated constructs in the absence or presence of the inhibitor C11. […] Input and bound fractions were analyzed by immunoblotting using hnRNP A1 antibodies. […] Bound CCND1 or c-MYC RNAs were detected via RT-PCR. […]

[3] = system: cyclin D1 or c-MYC mRNA association with eIF-4E; assay: eIF-4E immunoprecipitation and qRT-PCR of bound RNA; settings: LN229 cells, 50 nM
Experimental: (§2) For immunopurification of eIF4E and bound RNA (21), cells were lysed in buffer containing 50 mM Tris-HCl (pH 7.4), 300 mM NaCl, 0.5% NP-40, 10 mM NaF, 1 mM sodium orthovanidate, 1 mM PMSF, 1.5% aprotinin and SUPERase-IN (ThermoFisher Scientific), 0.025 units/ml, using a Dounce homogenizer at 4° C. Extracts were cleared by centrifugation and immunoprecipitated with eIF4E or control IgG. Beads were washed and obtained RNA was subjected to quantitative RTPCR. For quantitative RT-PCR, extraction of RNA was performed using Trizol (ThermoFisher). Total RNA was then quantified and integrity assessed using an Agilent 2100 Bioanalyzer (Agilent Technology). Total RNA was reverse transcribed with random primers using the RETROscript Kit from ThermoFisher. SYBR Green quantitative PCR was performed in triplicate in 96-well optical plates on an ABI Prism 7000 Sequence Detection System (Life Technologies) according to the manufacturer's instructions. Primer sequences for CCND1, c-MYC and actin are available upon request. […]
(§3) (B) Schematic diagrams of the dicistronic constructs used in this study. […] Input and bound fractions were analyzed by immunoblotting using hnRNP A1 antibodies. […] Bound CCND1 or c-MYC RNAs were detected via RT-PCR. […]

[4] = system: Delta Max splicing; assay: Max exon 5 alternative splicing analysis (RT-PCR); settings: U87 cells stably expressing EGFRvIII
Experimental: Max exon 5 alternative splicing analysis was performed as described (22). Alternative splicing was assayed using quantitative RT-PCR using primers designed to constitutive exons flanking alternative exons. Primers were: Max (85F) 5′-[…]-3′; MAX(85R) 5′-[…]-3′. Reverse primers were 32P end-labeled and PCR reactions were amplified for 22 cycles and subsequently resolved by denaturing PAGE and imaged.
(B) Schematic diagrams of the dicistronic constructs used in this study. Constructs used are pRF, pRCD1F, which contains the human cyclin D1 IRES, pRmycF, containing the human c-myc IRES, pRp27F, containing the human p27Kip1 IRES and pRECMVF, containing the IRES from encephalomyocarditis virus. (C) Relative Renilla and firefly luciferase activities obtained from LN229 GBM cells transfected with the indicated constructs in the absence or presence of the inhibitor C11. The mean and +SD are shown for three independent experiments. […] (D) RNA-pull down assays utilizing biotinylated cyclin D1 or c-MYC IRES RNAs. Cytoplasmic extracts of LN229 cells treated with C11 (50 nM) as indicated were incubated with biotinylated cyclin D1 or c-MYC IRES RNAs and precipitated with streptavidin-Sepharose beads. Input and bound fractions were analyzed by immunoblotting using hnRNP A1 antibodies. […] Bound CCND1 or c-MYC RNAs were detected via RT-PCR. […]

[5] = system: IRES from encephalomyocarditis virus; assay: Dicistronic IRES mRNA reporter assay, ECMV IRES; settings: LN229 cells
Experimental: as §1, §3
Several dicistronic IRES mRNA reporter constructs were utilized, shown in FIG. 1B, in which the indicated IRES sequences were inserted within the intercistronic region. LN229 cells transiently transfected with these constructs were assayed for Renilla and firefly luciferase activities, which are readouts of cap-dependent and IRES-mediated translation initiation, respectively (16).

[6] = biological target: T1, hnRNP A1 binding to cyclin D1 or c-MYC IRES RNAs (Homo sapiens, UniProt P09651); assay: RNA-pull down assay with biotinylated cyclin D1 or c-MYC IRES RNAs
T1 construct: endogenous in cells; host or cells: LN229 glioblastoma cells; 293T cells
Experimental: as §2, §3

T1 sequence (P09651 whole entry): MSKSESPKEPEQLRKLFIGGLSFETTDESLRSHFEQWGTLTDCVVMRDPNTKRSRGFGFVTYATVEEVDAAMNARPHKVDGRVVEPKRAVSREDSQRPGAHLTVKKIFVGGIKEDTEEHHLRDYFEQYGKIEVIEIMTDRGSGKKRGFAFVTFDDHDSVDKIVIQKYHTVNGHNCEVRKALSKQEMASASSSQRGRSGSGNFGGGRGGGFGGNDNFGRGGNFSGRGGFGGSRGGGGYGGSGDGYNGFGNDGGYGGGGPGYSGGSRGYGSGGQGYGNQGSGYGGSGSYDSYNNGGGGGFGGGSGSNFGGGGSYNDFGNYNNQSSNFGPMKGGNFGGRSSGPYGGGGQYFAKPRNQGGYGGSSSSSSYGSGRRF

SMILES	Cyclin D1 (decrease): fold decrease in PP242-induced cyclin D1 IRES activity [1] [fold]	mTOR inhibitor-induced cyclin D1 IRES activity ([1]; LN229 cells, cotreatment with rapamycin or PP242)	cyclin D1 IRES activity ([1]; LN229 cells, inhibitor alone)	cyclin D1 and c-MYC protein levels [2]	cyclin D1 or c-MYC mRNA association with eIF-4E [3]	Delta Max splicing [4]	IRES-mediated initiation from ECMV IRES [5]	hnRNP A1 binding to cyclin D1 or c-MYC IRES RNAs ([6]; extracts of LN229 cells treated with 50 nM)	ability to block cyclin D1 or c-MYC IRES-hnRNP A1 interactions relative to C11 ([6]; 293T cell extracts)
COc1ccc(CN2C(=O)C(Cl)=C(Cl)C2=O)c(OC)c1 [Compound C11, reference compound]	1.0	significantly inhibited	significantly inhibited	markedly reduced	did not affect	did not alter	did not affect	markedly reduced hnRNP A1 binding	
COc1ccc(CN2C(=O)c3ccccc3C2=O)c(OC)c1 [IRES-J007, 2-((2,4-Dimethoxyphenyl)methyl)isoindoline-1,3-dione]	4.97 ± 0.13								improved ability

— patent publication US20210220331A1, “INHIBITORS OF IRES-MEDIATED PROTEIN SYNTHESIS” (The Regents of the University of California, priority 2016, published 2021)
